Assay results reported in PubChem BioAssay (NCI).
Where “and” joins values, the source holds several entries; their conditions need not be identical. Equal values may be shown once.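 Five concentrations, 48 hours, 96-well plates. Here, GI50 denotes the concentration required for 50% inhibition of growth. TGI: total growth inhibition.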

Assays:
Assay in all cases: inhibition of tumour cell growth, NCI panel, 48 h
COLO 205 colon = test system: COLO 205 colon
SK-MEL-2 melanoma = test system: SK-MEL-2 melanoma
SW-620 colon = test system: SW-620 colon
OVCAR-5 ovarian = test system: OVCAR-5 ovarian
TK-10 renal = test system: TK-10 renal
SR leukemia = test system: SR leukemia
OVCAR-3 ovarian = test system: OVCAR-3 ovarian
DU-145 prostate = test system: DU-145 prostate
HT29 colon = test system: HT29 colon
ACHN renal = test system: ACHN renal

| Structure (SMILES) | GI50 (COLO 205 colon) | TGI (COLO 205 colon) | GI50 (SK-MEL-2 melanoma) | TGI (SK-MEL-2 melanoma) | GI50 (SW-620 colon) | TGI (SW-620 colon) | GI50 (OVCAR-5 ovarian) | TGI (OVCAR-5 ovarian) | GI50 (TK-10 renal) | TGI (TK-10 renal) | GI50 (SR leukemia) | TGI (SR leukemia) | GI50 (OVCAR-3 ovarian) | TGI (OVCAR-3 ovarian) | GI50 (DU-145 prostate) | TGI (DU-145 prostate) | GI50 (HT29 colon) | TGI (HT29 colon) | GI50 (ACHN renal) | TGI (ACHN renal) |
| --- | --- | --- | --- | --- | --- | --- | --- | --- | --- | --- | --- | --- | --- | --- | --- | --- | --- | --- | --- | --- |
| Cc1nc(N(C)C)nc(-c2cccc(-c3ccn(CCN(C)C)n3)c2)c1C | > 20 µM | > 20 µM | > 20 µM | > 20 µM | > 20 µM | > 20 µM | > 20 µM | > 20 µM | > 20 µM | > 20 µM | > 20 µM | > 20 µM | > 20 µM | > 20 µM | > 20 µM | > 20 µM | > 20 µM | > 20 µM | > 20 µM | > 20 µM |
| CN(Cc1cccc(Cl)c1)c1ccc(CO)c(Cl)c1 | 7.39 µM | 20.9 µM | 9.88 µM | 27.4 µM | 5.93 µM | > 42.9 µM | 0.602 µM | 3.84 µM | 0.215 µM | 1.36 µM | 22.4 µM | 72.8 µM | 3.46 µM | 14 µM | 21 µM | > 51.1 µM | 9.93 µM | 31.2 µM | 21.9 µM | 93.5 µM |
| Nc1c(C(=O)Nc2cccc3ccccc23)sc2nc3c(cc12)CCCCCC3 | 1.45 µM | 4.8 µM | 17 µM | > 50 µM | 1.45 µM | > 50 µM | 2.7 µM | > 50 µM | > 50 µM | > 50 µM | 0.429 µM | > 50 µM | 0.979 µM | 2.8 µM | 2.05 µM | > 50 µM | 1.67 µM | 5.58 µM | 2.79 µM | > 50 µM |
| c1ccc(Oc2cnc3ccccc3n2)cc1 | > 100 µM | > 100 µM | > 100 µM | > 100 µM | > 100 µM | > 100 µM | > 100 µM | > 100 µM | 53.9 µM | > 100 µM | 55.3 µM | > 100 µM | > 100 µM | > 100 µM | > 100 µM | > 100 µM | > 100 µM | > 100 µM | > 100 µM | > 100 µM |
| CC(NC(=O)C1(N)CCCC1)C(=O)O (stereo not given) |  | > 100 µM |  | > 100 µM |  | > 100 µM |  | > 100 µM |  | > 100 µM |  | > 100 µM |  | > 100 µM |  | > 100 µM |  | > 100 µM |  | > 100 µM |
| CC(=O)O[C@H]1CC[C@@]2(C)[C@@H](CC[C@@H]3[C@@H]2CC(=O)[C@@]2(C)[C@H]3C[C@@H]3CC(C)=CC(=O)[C@@H]32)C1 |  | > 100 µM |  | > 100 µM |  | > 100 µM |  | > 100 µM |  | > 100 µM |  | > 100 µM |  | > 100 µM |  | > 100 µM |  | > 100 µM |  | > 100 µM |
| O=C1COCCN1c1ccc(NCc2cn(Cc3ccc(F)cc3)c3ccccc23)cc1 | 0.664 µM | 5.29 µM | 0.779 µM | 6.06 µM | 0.562 µM | > 52.6 µM | 0.0418 µM | 0.231 µM | 0.0456 µM | 0.636 µM | 3.84 µM | > 100 µM | 0.313 µM | 2.96 µM | 5.33 µM | > 69.1 µM | 1.67 µM | > 100 µM | 2.91 µM | 31.4 µM |
| CCOc1ccc(-n2cc(-c3ccc(N(C)C)cc3)[n+]3c2CCCCC3)cc1 | 0.197 µM | 1.73 µM | 0.286 µM | 6.32 µM | 2.21 µM | > 100 µM | 3.74 µM | > 100 µM | 0.827 µM | 49 µM | 0.978 µM | 29.4 µM | 0.377 µM | 60.2 µM | 1.82 µM | > 100 µM | 0.609 µM | > 24.7 µM | 2.63 µM | > 100 µM |
| O=P1(NCCCl)OCCC(OO)N1CCCl (stereo not given) |  | > 57.3 µM |  | > 100 µM |  | 30.5 µM |  | > 100 µM |  | 39.8 µM |  | > 100 µM |  | 53 µM |  | > 100 µM |  | > 81.9 µM |  | 33 µM |
| COc1nc(C(Cl)(Cl)Cl)c(Cl)c(OC)c1Cl |  | > 65.1 µM and 80 µM |  | > 31.6 µM and 70.8 µM | > 49.3 µM | > 74.8 µM and 75 µM |  | > 72.4 µM and 78.7 µM | > 91.6 µM | 94.5 µM | > 45.5 µM | > 72.1 µM and 82.6 µM | > 43.4 µM | > 61.1 µM and 72.6 µM |  | 73.2 µM | > 57 µM | 96.5 µM |  | > 54.1 µM and 73.5 µM |
